Test results reported in patent US4622328A, “Phenyl-naphthyridines and drugs containing them, particularly anti-ulcer drugs” (priority 1984, dated 1986).
Read-outs that look alike come from different tables or passages of the source.

Key:
[1] = tested on: gastric lesions (ulcers) provoked by nonsteroid antiinflammatory agent; assay: Anti-ulcer activity: protection of gastric lesions provoked by a medicamentous ulcer forming agent (nonsteroid antiinflammatory agent); type: in vivo, male rats of OFA (Iffa Credo) strain; conditions: for ED50: Rattus norvegicus, po, read-out: AD50 (active dose 50)
Protocol: (§1) Batches of 10 to 30 male rats of OFA (Iffa Credo) strain, weighing 160-180 g, are placed on a water diet 24 hours before the oral administration of the product studied. Thirty minutes later, a medicamentous ulcer-forming agent or a necrosing agent (for example absolute ethanol) is administered by the oral route at doses which cause in the control animals a maximum gastric ulceration. The stomachs are removed, according to the test, 6 and 1 hr. respectively after the last treatment. The gastric lesions are then assessed macroscopically (dimensioning and measurement of the size of the ulcers).
(§2) They are expressed in the form of % of inhibition of the ulcers. The active dose 50 is determined graphically.

[2] = tested on: gastric lesions (ulcers) provoked by ethanol; assay: Anti-ulcer activity: protection of gastric lesions provoked by a necrosing agent (ethanol); type: in vivo, male rats of OFA (Iffa Credo) strain; conditions: for ED50: Rattus norvegicus, po, read-out: AD50 (active dose 50)
Protocol: as §1, §2

total acid secretion = assay: Anti-secretory activity: inhibition of total acid secretion after pyloric ligature; type: in vivo, male rats of OFA (Iffa Credo) strain; conditions: for ED50: Rattus norvegicus, 4 h, read-out: AD50 (active dose 50); for % of inhibition of the total acid secretion: 4 hours
Protocol: A pyloric ligature is made under ether anaesthesia on batches of 5 male rats of OFA (Iffa Credo) strain weighing 180-200 g. The product studied is administered by the oral or sub-cutaneous route at the time of the ligature. The animals are sacrificed 4 hours later and the acidity of the gastric fluid collected is titered by 0.1N sodium hydroxide to pH 4 and 7.
They are expressed in percentage of inhibition of the total acid secretion. The active dose 50 is determined from the linear regression. The significance is given by the Student "t" test (* and ** for p<0.05 and p<0.01).

[3] = tested on: painful reactions (phenylbenzoquinone); assay: Analgesic activity: inhibition of painful reactions (twists and stretches) to phenylbenzoquinone; type: in vivo, male mice of CDl (Charles River) strain; conditions: for DA50 (active dose): VO, linear regression
Protocol: Batches of 6 to 18 male mice of CDl (Charles River) strain, weighing 18 to 22 g, receive by the intraperitoneal route a water-alcohol 0.02% solution of phenylbenzoquinone 1 hour after treatment by the oral route. The number of painful reactions is counted from the 5th to the 10th minute.
The active dose and its limits are determined from the linear regression.

in vivo = conditions: fasting Sprague Dawley rat, oral route
oedema (carragenin) = assay: Anti-inflammatory activity: inhibition of carragenin oedema of the paw; type: in vivo, male rats of CD (Charles River) strain
Protocol: Batches of 6 to 12 male rats of CD (Charles River) strain, weighing 120-130 g, receive for food and drink a 9 o/oo solution of sodium chloride and 200 o/oo of glucose 18 hours before the test.
The volume of the paw is measured by plethysmography at regular intervals.
The active dose 50 and its limits are determined from the linear regression. The significance of the results is given by the Student "t" test (*, ** and *** for p<0.05, p<0.01 and […]).

[4] = 0.06 mg.kg-1 VO, ethanol lesions
[5] = 0.25 mg.kg-1 VO, ethanol lesions
[6] = VO, NSAID lesions, determined graphically
[7] = VO, ethanol lesions, determined graphically

SMILES | % of protection of lesions provoked ([1]; 2 mg.kg-1 VO, NSAID lesions) | % of protection of lesions provoked [2, 4] | % of protection of lesions provoked [2, 5] | % of protection of lesions provoked ([2]; 1 mg.kg-1 VO, ethanol lesions) | % of protection of lesions provoked ([2]; 4 mg.kg-1 VO, ethanol lesions) | % of inhibition of the total acid secretion (total acid secretion; administered SC, 0.25 mg.kg-1) | % of inhibition of the total acid secretion (total acid secretion; administered SC, 0.5 mg.kg-1) | % of inhibition of the painful reactions ([3]; 16 mg.kg-1 VO) | % of inhibition of the painful reactions ([3]; 32 mg.kg-1 VO) | % of inhibition of the painful reactions ([3]; 64 mg.kg-1 VO) | % of inhibition of the painful reactions ([3]; 128 mg.kg-1 VO) | % of inhibition of the painful reactions ([3]; 256 mg.kg-1 VO) | DA50 (active dose) [3] | % of protection of lesions provoked ([1]; 4 mg.kg-1 VO, NSAID lesions) | % of protection of lesions provoked ([1]; 8 mg.kg-1 VO, NSAID lesions) | % of protection of lesions provoked ([1]; 16 mg.kg-1 VO, NSAID lesions) | % of protection of lesions provoked ([1]; 32 mg.kg-1 VO, NSAID lesions) | ED50 [1, 6] | LD50 (in vivo) | ED50 [2, 7] | other results
Cc1cc2cccnc2n(-c2ccccc2)c1=O [Example 11, 1-phenyl 1,2-dihydro 2-oxo 3-methyl 1,8-naphthyridine] | 100% | 86% | 95% | 94% | 98% | 76% | 81% | – | – | – | – | – | – | – | – | – | – | – | – | – | % of protection of lesions provoked ([1]; 0.25 mg.kg-1 VO, NSAID lesions): 1%; % of protection of lesions provoked ([1]; 0.5 mg.kg-1 VO, NSAID lesions): 34%; % of protection of lesions provoked ([1]; 1 mg.kg-1 VO, NSAID lesions): 75%; ED50 [1]: 0.67 mg/kg; ED50 [2]: < 0.06 mg/kg; ED50 (total acid secretion; sc): 0.065 mg/kg; % of inhibition of the total acid secretion (total acid secretion; administered SC, 0.03 mg.kg-1): 37%; % of inhibition of the total acid secretion (total acid secretion; administered SC, 0.06 mg.kg-1): 46%; % of inhibition of the total acid secretion (total acid secretion; administered SC, 0.125 mg.kg-1): 63%
Cc1cc2cccnc2n(-c2cccc(C(F)(F)F)c2)c1=O [Examples 3 & 10, 1-(3-trifluoromethylphenyl)1,2-dihydro 2-oxo 3-methyl 1,8-naphthyridine] | 15% | 0% | 42% | 79% | – | 4% | 38% | 30% | 26% | 57% | 58% | 73% | 69.4 mg · kg - 1 | 22% | 62% | 87% | 95% | 6.5 mg/kg | > 256 mg/kg | 0.37 mg/kg | % of inhibition of the painful reactions ([3]; 8 mg.kg-1 VO): 6%; % of protection of lesions provoked ([2]; 0.125 mg.kg-1 VO, ethanol lesions): 17%; % of protection of lesions provoked ([2]; 0.5 mg.kg-1 VO, ethanol lesions): 64%; ED50 (total acid secretion; administered SC, linear regression): 0.72 mg/kg; ED50 (total acid secretion; po, administered VO, linear regression): 0.7 mg/kg; % of inhibition of the total acid secretion (total acid secretion; administered SC, 1 mg.kg-1): 65%; % of inhibition of the total acid secretion (total acid secretion; administered SC, 2 mg.kg-1): 90%; % of inhibition of the total acid secretion (total acid secretion; administered VO, 0.125 mg.kg-1): 2%; % of inhibition of the total acid secretion (total acid secretion; administered VO, 0.25 mg.kg-1): 18%; % of inhibition of the total acid secretion (total acid secretion; administered VO, 0.5 mg.kg-1): 59%; % of inhibition of the total acid secretion (total acid secretion; administered VO, 1 mg.kg-1): 56%; % of inhibition of the total acid secretion (total acid secretion; administered VO, 2 mg.kg-1): 75%; % of inhibition of the oedema (oedema (carragenin); 4 mg.kg-1 VO): 10%; % of inhibition of the oedema (oedema (carragenin); 16 mg.kg-1 VO): 31%; % of inhibition of the oedema (oedema (carragenin); 64 mg.kg-1 VO): 47%; % of inhibition of the oedema (oedema (carragenin); 128 mg.kg-1 VO): 61%; % of inhibition of the oedema (oedema (carragenin); 256 mg.kg-1 VO): 64%; ED50 (oedema (carragenin); Rattus norvegicus, po, VO, linear regression, read-out: AD50 (active dose 50)): 73.3 mg/kg
O=c1ccc2cccnc2n1-c1cccc(C(F)(F)F)c1 [Example 4, 1-(3-trifluoromethylphenyl)1,2-dihydro 2-oxo 1,8-naphthyridine] | – | – | – | 6% | 87% | – | – | 6% | 39% | 37% | 79% | 93% | 62.0 mg · kg - 1 | 11% | 40% | 68% | 81% | 12 mg/kg | > 256 mg/kg | 2.2 mg/kg | % of protection of lesions provoked ([2]; 2 mg.kg-1 VO, ethanol lesions): 52%; % of inhibition of the oedema (oedema (carragenin); 4 mg.kg-1 VO): 14%; % of inhibition of the oedema (oedema (carragenin); 16 mg.kg-1 VO): 21%; % of inhibition of the oedema (oedema (carragenin); 64 mg.kg-1 VO): 80%; % of inhibition of the oedema (oedema (carragenin); 128 mg.kg-1 VO): 70%; % of inhibition of the oedema (oedema (carragenin); 256 mg.kg-1 VO): 83%
